Measured values as given in PMC10550954, “A high throughput screen for pharmacological inhibitors of the carbohydrate response element” (Scientific Data, 2023).

Key:
[1] = test system: ChoRE-LUC (ChoRE driven transcription); experiment: ChoRE-LUC luciferase reporter assay in INS-1E ChoRE-LUC cells (BrightGlo, 24 h, 25 mM glucose); type: cell-based, Rat; details: 24 h treatment, 25 mM glucose media, 2% FBS
Procedure: For ReFRAME library screening, 10 nL of 2 mM DMSO stock concentrations of compound were prespotted into 5 µL of assay medium (RPMI with 2% FBS, 10 mM HEPES, 1 mM sodium pyruvate, 25 mM D-glucose (Sigma), and 1% penicillin/streptomcycin) in white 384-well plates (Grenier) using an Echo Acoustic Liquid Handler instrument (Labcyte) before the addition of INS-1E ChoRE-LUC cells (5000 cells in 45 µL assay medium per well). Cells were incubated for 24 h before 30 µL of BrightGlo Luciferase Assay solution (diluted 1:3 in water, Promega) was added to each well and luminescence signal values were recorded with an Envision plate reader (PerkinElmer). This protocol was used as the ReFRAME library was supplied from off-site and necessitated pre-spotting for efficient transfer of materials. For the screening of all other libraries, which was performed in-house, INS-1E ChoRE-LUC cells were plated in a white 384-well plate (5000 cells in 50 µL assay medium per well) and incubated for 24 h. 100 nL of DMSO stock concentrations of compound were transferred to each well using a Bravo instrument with a pintool head (Agilent). Cells were incubated for 24 h before 30 µL of BrightGlo Luciferase Assay solution was added to each well and luminescence signal values were recorded with an Envision plate reader.
(§1) Reporter activity and cell viability data was normalized to the DMSO control wells in each plate. Ten or twelve dose-response points and three biological replicates were used to determine dose-response curves using the four-parameter inhibitor dose-response curve fitting function in Prism software (Graphpad). All graphed data are plotted as the mean and the s.e.m denoted with error bars.
To establish a reliable assay with a suitable dynamic range for high-throughput screening, we first optimized the composition of the DNA regulatory sequences within the ChoRE-LUC reporter. […] To determine whether this combination of regulatory elements was robust enough to test general ChoRE activity, we constructed six pGL4-based luciferase reporter plasmids with different numbers and/or combinations of ChoRE and FOXO sequences from the promoter of the human TXNIP gene (Fig. 3a). The wild-type (WT) sequence represents the intact minimal promoter of the TXNIP gene (GRCh38.p14, chr1:145,996,639–145,996,759). The six plasmids were transiently transfected into INS-1E cells using cationic lipid-based transfection reagents and the induction of luciferase after 24 h in 25 mM glucose containing media was compared (Fig. 3b). In addition, we tested various glucose concentrations in the assay media to determine the concentration that results in the highest stimulation. […] The WT ChoRE-LUC construct was then used to generate an INS-1E stable cell line (INS-1E ChoRE-LUC) for screening in 384-well plate format. For high-throughput screening, the treatment time, serum percentage in media, and cell count per well were optimized further. The final assay design consisted of 5,000 INS-1E ChoRE-LUC cells per well of a 384-well plate in 25 mM glucose media supplemented with 2% FBS and a compound treatment time of 24 h.

[2] = Cytotoxicity screening (CellTiterGlo cell viability) in INS-1E ChoRE-LUC cells; type: cell-based; details: rat, 24 h treatment
Procedure: INS-1E ChoRE-LUC cells were plated in a white 384-well plate (5000 cells in 50 µL assay medium per well) and incubated for 24 h. 100 nL of DMSO stock concentrations of compound were transferred to each well using a Bravo instrument (Agilent) affixed with a pintool head (V&P Scientific). Cells were incubated for 24 h before 30 µL of CellTiterGlo Cell Viability Assay solution (diluted 1:6 in water, Promega) was added to each well and luminescence signal values were recorded with an Envision plate reader.
as §1

TXNIP expression = test system: TXNIP expression; set-up: method as in PMID 28502980; details: compared with the ChoRE-LUC IC50 of this paper; read-out: previously reported measurement (IC50); cited from earlier work
[3] = Rattus norvegicus, INS-1E, 24 h

Row | Structure (SMILES) | IC50 [1, 3] [nM] | IC50 at 24 h [2] [µM] | IC50 [1] [nM] | IC50 (TXNIP expression) [nM]
1 | CC[C@H](Nc1nc(NCc2cnc(C)cc2C)c2ncn(C(C)C)c2n1)[C@@H](C)O [CYC065, reference compound] | 580 | 0.85 | – | –
2 | CC(=O)c1ccc(OCCn2cnc3c(N)ncnc32)cc1 [W2476, reference compound] | – | – | 1330 | 1700
3 | Fc1cc(Br)ccc1CN1CCC(F)(c2noc(-c3ccncc3)n2)C1 (stereo not shown) [SC41-0178] | 9830 | > 20 | – | –
4 | O=C(c1ccc(F)c(Cl)c1)N1CC2(CC(CCOCc3cccc(F)c3)CO2)C1 (stereo not shown) [SD60-0151] | 9500 | > 20 | – | –
5 | FC(F)(F)c1ccc(CN2CCC(F)(c3noc(-c4ccncc4)n3)C2)cc1 (stereo not shown) [SC41-0173] | 8250 | > 20 | – | –
6 | O=C(NCc1ccco1)C(=Cc1ccc(Cl)c(Cl)c1)C(=O)NCc1ccco1 [Y070-0096] | 1370 | 3.98 | – | –
7 | CCOC(=O)c1[nH]c2ccccc2c1NC(=O)/C=C/c1ccc(OC)c(OC)c1 [C175-0061] | 1110 | > 20 | – | –
8 | CCS(=O)(=O)Oc1ccc(CN(Cc2ccc(F)cc2)C(=O)/C=C/c2ccccc2)cc1 [V029-2992] | 2850 | > 20 | 2900 | –
9 | Cc1cc(C)cc(C(=O)N2CC3(CC(CCOCc4cccc(F)c4)CO3)C2)c1 (stereo not shown) [SD60-0149] | 10600 | > 20 | – | –
